Key:
[1] = test system: B16 melanoma cells; experiment: B16 melanoma tumor model in STING-deficient mice, intratumoral CDN; assay type: in vivo, goldenticket STING−/− mice; conditions: ML RR-CDG 25 μg, ML RR-CDA 50 μg, CpG 1668 50 μg, three injections, FIG. 20B
Procedure: (§1) To determine whether the effects of the derivative molecules are STING-dependent, B16 melanoma cells (5×10^4 cells in 100 μL PBS) were implanted on the right flanks of 6-8 week old female goldenticket STING^−/− mice, or wild-type C57BL/6 control mice (5 mice per group). Treatments began when tumors reached a volume of approximately 75 mm^3, on day 14 post tumor implantation. The compounds administered were Rp, Rp dithio cyclic [G(2′,5′)pG(3′,5′)p] (ML RR-CDG) (25 μg in a total volume of 40 μL HBSS), Rp, Rp dithio cyclic [A(2′,5′)pA(3′,5′)p] (ML RR-CDA) (50 μg in a total volume of 40 μL HBSS), the TLR9 agonist CpG 1668 (50 μg in a total volume of 40 μL HBSS), or HBSS vehicle control. Mice were treated by subcutaneous injection into the center of tumor only using a 27 gauge needle. Injections were repeated every three days, for a total of three intratumoral injections.

[2] = test system: THP1-Blue™ ISG cells; experiment: Type I interferon induction in THP1-Blue ISG reporter cells (QUANTI-Blue, A655); assay type: cell-based, human; conditions: for IFN-β levels: 50 μM for 30 minutes, supernatants after overnight incubation, FIG. 10
Procedure: To determine the relative level of type I interferon induced in human cells by each of the native and derivative molecules as a signature of adjuvant potency, 4×10^5 THP1-Blue™ ISG cells (a human monocyte cell line transfected with an IRF-inducible secreted embryonic alkaline phosphatase reporter gene (Invivogen) which express alkaline phosphatase under the control of a promoter comprised of five IFN-stimulated response elements) were incubated with 100 μM of cyclic [G(3′,5′)pG(3′,5′)p] (CDG), cyclic [G(2′,5′)pG(3′,5′)p] (mixed linkage, or ML-CDG), or HBSS for 30 minutes at 37° C. with 5% CO2. After 30 minutes, cells were washed and plated in 96-well dish in RPMI media containing 10% FBS, and incubated at 37° C. with 5% CO2. Cell culture supernatants from each sample were collected after overnight incubation, and 20 μL of the cell culture supernatants was added to 180 μL QUANTI-Blue reagent (Invivogen) and incubated for 45 minutes to evaluate type I interferon protein levels. Readings at Absorbance 655 nm were taken every 3 minutes using a Versa Max kinetic spectrophotometer (Molecular Diagnostics).
[…]. After 30 minutes, cells were washed and plated in 96-well dish in RPMI media containing 10% FBS, and incubated at 37° C. with 5% CO2. Cell culture supernatants from each sample were collected after overnight incubation, and 20 μL of the cell culture supernatants was added to 180 μL QUANTI-Blue reagent (Invivogen) and incubated for 45 minutes. Readings at Absorbance 655 nm were taken at 15 minutes using a SpectraMax spectrophotometer (Molecular Diagnostics).
The induction of type I interferon in human cells was measured to evaluate the potency of untreated and phosphodiesterase-treated oxo, Rp monothio and Rp, Rp dithio derivatives. […]. After 30 minutes, cells were washed and plated in a 96-well dish in RPMI media containing 10% FBS, and incubated at 37° C. with 5% CO2. Cell culture supernatants from each sample were collected after 16 hr incubation, and 20 μL of the cell culture supernatants was added to 180 μL QUANTI-Blue reagent (Invivogen) and incubated for 25 minutes to evaluate type I interferon protein levels. Readings at Absorbance 655 nm were measured with a Versa Max spectrophotometer (Molecular Diagnostics).

[3] = test system: B16 melanoma cells; experiment: B16 melanoma subcutaneous tumor model, intratumoral CDN; assay type: in vivo, C57BL/6 mice; conditions: 25 μg intratumoral, three injections, FIG. 18; for anti-tumor efficacy (tumor volume): every three days
Procedure: To assess the ability of the derivative molecules to promote anti-tumor immunity, B16 melanoma cells (5×10^4 cells in 100 μL PBS) were implanted subcutaneously on the lower back of 6-8 week old female C57BL/6 mice (8 mice per group). Treatments began when tumors reached a volume of approximately 75 mm^3, on day 14 post tumor implantation. The CDN compounds were administered (25 μg in a total volume of 40 μL HBSS) by subcutaneous injection into the center of the tumor using a 27 gauge needle. Injections were repeated every three days, for a total of three intratumoral injections. The CDNs tested were cyclic [G(3′,5′)pG(3′,5′)p] (CDG); cyclic [G(2′,5′)pG(3′,5′)p] (mixed linkage, or ML CDG); Rp, Rp dithio cyclic [G(2′,5′)pG(3′,5′)p] (ML RR-CDG); cyclic [A(3′,5′)pA(3′,5′)p] (CDA); cyclic [A(2′,5′)pA(3′,5′)p] (mixed linkage, or ML CDA); and Rp, Rp dithio cyclic [A(2′,5′)pA(3′,5′)p] (ML RR-CDA).
as §1

[4] = test system: CT26 colon carcinoma cells; experiment: CT26 colon carcinoma flank tumor model, intratumoral CDN; assay type: in vivo, BALB/c mice; conditions: for complete inhibition of tumor growth of established CT26 tumors: every three days, three injections, 8 mice per group, FIG. 19B
Procedure: Either CT26 colon carcinoma cells (1×10^5 cells in 100 μL PBS) or 4T1 mammary carcinoma cells (1×10^5 cells in 100 μL PBS) were implanted subcutaneously on the flanks of 6-8 week old female BALB/c mice (8 mice per group). Treatments began when tumors reached a volume of approximately 75 mm^3, which was approximately day 14 post tumor implantation. The compounds Rp, Rp dithio cyclic [A(2′,5′)pA(3′,5′)p] (ML RR-CDA) or Rp, Rp dithio cyclic [G(2′,5′)pG(3′,5′)p] (ML RR-CDG) compounds (25 μg in a total volume of 40 μL HBSS), or HBSS vehicle control, and Rp, Rp dithio cyclic [A(2′,5′)pA(3′,5′)p] (ML RR-CDA) (50 μg in a total volume of 40 μL HBSS) or HBSS vehicle control, were administered by subcutaneous injection into the center of the tumor using a 27 gauge needle. Injections were repeated every three days, for a total of three intratumoral injections.
To determine whether the synthetic derivative CDN molecules elicit durable and effective anti-tumor T-cell immunity, 6-8 week old female BALB/c mice (8 mice per group) were implanted with CT26 colon carcinoma cells (1×10^5 cells in 100 μL PBS). Mice were treated with Rp, Rp dithio cyclic [A(2′,5′)pA(3′,5′)p] (ML RR-CDA) compound ([…] in a total volume of 40 μL HBSS) or HBSS vehicle control, and tumor growth was monitored as per previous example. Mice were bled on day 18 post tumor implantation and PBMCs were isolated by Ficoll gradient (Miltenyi Biotech). 5×10^4 PBMCs were stimulated overnight in an IFNγ ELISpot assay with media alone (unstimulated), or with 1 μM of the endogenous H-2 L^d-restricted tumor rejection antigen AH1 peptide in the presence of 1×10^5 naïve splenocytes as feeder cells. IFN-γ ELISpot plates were developed and quantified using a CTL plate reader and ImmunoSpot software. On day 55 post tumor implantation, surviving mice and age-matched naïve control mice were implanted on the contralateral flank with either CT26 or 4T1 (both 1×10^5 cells in 100 μL PBS) tumor cells (4 mice per group), and monitored for tumor growth.

| Structure (SMILES) | tumor growth in STING−/− mice [1] | IFN-β levels [2] | induction of type I interferon, untreated compounds ([2]; 50 μM, mock treated, 16 hr incubation, FIG. 12) | anti-tumor efficacy (tumor volume) [3] | tumor rejection ([3]; P=0.0004, student's t-test) | rejection of established CT26 colon carcinomas ([4]; 50 mg in a total volume of 40 μL HBSS, FIG. 21A) | complete inhibition of tumor growth of established CT26 tumors [4] | tumor status by day 44 post tumor implantation [3] |
| --- | --- | --- | --- | --- | --- | --- | --- | --- |
| Nc1ncnc2c1ncn2[C@@H]1O[C@@H]2COP(O)(=S)O[C@@H]3C(O)[C@@H](COP(O)(=S)O[C@H]2[C@H]1O)O[C@H]3n1cnc2c(N)ncnc21 (stereo partly drawn) [ML RR-CDA, dithio-[RP, RP]-cyclic-[A(2′,5′)pA(3′,5′)p]] | not inhibited | significantly higher IFN-β levels that either the unmodified CDA or ML CDA molecules | more potent inducers of type I interferon than the oxo | potent anti-tumor efficacy | significantly more tumor rejection than the ML CDA derivative | all mice treated with ML RR-CDA rejected the growth of established CT26 colon carcinomas | completely inhibited tumor growth of all established CT26 tumors |  |
| Nc1nc2c(ncn2[C@@H]2O[C@@H]3CO[P@@](O)(=S)O[C@@H]4[C@H](O)[C@@H](CO[P@@](O)(=S)O[C@H]3[C@H]2O)O[C@H]4n2cnc3c(=O)[nH]c(N)nc32)c(=O)[nH]1 [ML RR-CDG, dithio-[RP,RP]-cyclic-[G(2′,5′)pG(3′,5′)p]] | not inhibited | significantly higher levels of IFN-β than the unmodified cyclic c-di-GMP (CDG) or modified CDG molecules |  | potent anti-tumor efficacy |  |  | 7 out of 8 | mice remained nearly tumor-free |
